Target: T1, ATM (Homo sapiens, UniProt Q13315)
T1 construct: detecting phosphorylation of Chk2 in a human non-small cell lung cancer cell line NCI-H460 (ATCC company); host or cells: NCI-H460 human non-small cell lung cancer cells
Experiment: ATM inhibition test (phosphorylation of Chk2 generated by ionizing radiation, AlphaScreen SureFire)
Type: cell-based
Details: phosphorylated Chk2 in NCI-H460 cells, ionizing radiation 8Gy, 1 hour after test compound treatment; read-out: ATM inhibitory activity
Method in brief: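 NCI-H460 cells, compound 1 h pre-treatment, 8Gy IR, further 1 h at 37° C in 5% CO2. Read-out: phospho-Chk2 via AlphaScreen SureFire. % inhibition relative to IR-induced signal window (irradiated vs non-irradiated drug-free wells).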

T1 sequence (Q13315 whole entry): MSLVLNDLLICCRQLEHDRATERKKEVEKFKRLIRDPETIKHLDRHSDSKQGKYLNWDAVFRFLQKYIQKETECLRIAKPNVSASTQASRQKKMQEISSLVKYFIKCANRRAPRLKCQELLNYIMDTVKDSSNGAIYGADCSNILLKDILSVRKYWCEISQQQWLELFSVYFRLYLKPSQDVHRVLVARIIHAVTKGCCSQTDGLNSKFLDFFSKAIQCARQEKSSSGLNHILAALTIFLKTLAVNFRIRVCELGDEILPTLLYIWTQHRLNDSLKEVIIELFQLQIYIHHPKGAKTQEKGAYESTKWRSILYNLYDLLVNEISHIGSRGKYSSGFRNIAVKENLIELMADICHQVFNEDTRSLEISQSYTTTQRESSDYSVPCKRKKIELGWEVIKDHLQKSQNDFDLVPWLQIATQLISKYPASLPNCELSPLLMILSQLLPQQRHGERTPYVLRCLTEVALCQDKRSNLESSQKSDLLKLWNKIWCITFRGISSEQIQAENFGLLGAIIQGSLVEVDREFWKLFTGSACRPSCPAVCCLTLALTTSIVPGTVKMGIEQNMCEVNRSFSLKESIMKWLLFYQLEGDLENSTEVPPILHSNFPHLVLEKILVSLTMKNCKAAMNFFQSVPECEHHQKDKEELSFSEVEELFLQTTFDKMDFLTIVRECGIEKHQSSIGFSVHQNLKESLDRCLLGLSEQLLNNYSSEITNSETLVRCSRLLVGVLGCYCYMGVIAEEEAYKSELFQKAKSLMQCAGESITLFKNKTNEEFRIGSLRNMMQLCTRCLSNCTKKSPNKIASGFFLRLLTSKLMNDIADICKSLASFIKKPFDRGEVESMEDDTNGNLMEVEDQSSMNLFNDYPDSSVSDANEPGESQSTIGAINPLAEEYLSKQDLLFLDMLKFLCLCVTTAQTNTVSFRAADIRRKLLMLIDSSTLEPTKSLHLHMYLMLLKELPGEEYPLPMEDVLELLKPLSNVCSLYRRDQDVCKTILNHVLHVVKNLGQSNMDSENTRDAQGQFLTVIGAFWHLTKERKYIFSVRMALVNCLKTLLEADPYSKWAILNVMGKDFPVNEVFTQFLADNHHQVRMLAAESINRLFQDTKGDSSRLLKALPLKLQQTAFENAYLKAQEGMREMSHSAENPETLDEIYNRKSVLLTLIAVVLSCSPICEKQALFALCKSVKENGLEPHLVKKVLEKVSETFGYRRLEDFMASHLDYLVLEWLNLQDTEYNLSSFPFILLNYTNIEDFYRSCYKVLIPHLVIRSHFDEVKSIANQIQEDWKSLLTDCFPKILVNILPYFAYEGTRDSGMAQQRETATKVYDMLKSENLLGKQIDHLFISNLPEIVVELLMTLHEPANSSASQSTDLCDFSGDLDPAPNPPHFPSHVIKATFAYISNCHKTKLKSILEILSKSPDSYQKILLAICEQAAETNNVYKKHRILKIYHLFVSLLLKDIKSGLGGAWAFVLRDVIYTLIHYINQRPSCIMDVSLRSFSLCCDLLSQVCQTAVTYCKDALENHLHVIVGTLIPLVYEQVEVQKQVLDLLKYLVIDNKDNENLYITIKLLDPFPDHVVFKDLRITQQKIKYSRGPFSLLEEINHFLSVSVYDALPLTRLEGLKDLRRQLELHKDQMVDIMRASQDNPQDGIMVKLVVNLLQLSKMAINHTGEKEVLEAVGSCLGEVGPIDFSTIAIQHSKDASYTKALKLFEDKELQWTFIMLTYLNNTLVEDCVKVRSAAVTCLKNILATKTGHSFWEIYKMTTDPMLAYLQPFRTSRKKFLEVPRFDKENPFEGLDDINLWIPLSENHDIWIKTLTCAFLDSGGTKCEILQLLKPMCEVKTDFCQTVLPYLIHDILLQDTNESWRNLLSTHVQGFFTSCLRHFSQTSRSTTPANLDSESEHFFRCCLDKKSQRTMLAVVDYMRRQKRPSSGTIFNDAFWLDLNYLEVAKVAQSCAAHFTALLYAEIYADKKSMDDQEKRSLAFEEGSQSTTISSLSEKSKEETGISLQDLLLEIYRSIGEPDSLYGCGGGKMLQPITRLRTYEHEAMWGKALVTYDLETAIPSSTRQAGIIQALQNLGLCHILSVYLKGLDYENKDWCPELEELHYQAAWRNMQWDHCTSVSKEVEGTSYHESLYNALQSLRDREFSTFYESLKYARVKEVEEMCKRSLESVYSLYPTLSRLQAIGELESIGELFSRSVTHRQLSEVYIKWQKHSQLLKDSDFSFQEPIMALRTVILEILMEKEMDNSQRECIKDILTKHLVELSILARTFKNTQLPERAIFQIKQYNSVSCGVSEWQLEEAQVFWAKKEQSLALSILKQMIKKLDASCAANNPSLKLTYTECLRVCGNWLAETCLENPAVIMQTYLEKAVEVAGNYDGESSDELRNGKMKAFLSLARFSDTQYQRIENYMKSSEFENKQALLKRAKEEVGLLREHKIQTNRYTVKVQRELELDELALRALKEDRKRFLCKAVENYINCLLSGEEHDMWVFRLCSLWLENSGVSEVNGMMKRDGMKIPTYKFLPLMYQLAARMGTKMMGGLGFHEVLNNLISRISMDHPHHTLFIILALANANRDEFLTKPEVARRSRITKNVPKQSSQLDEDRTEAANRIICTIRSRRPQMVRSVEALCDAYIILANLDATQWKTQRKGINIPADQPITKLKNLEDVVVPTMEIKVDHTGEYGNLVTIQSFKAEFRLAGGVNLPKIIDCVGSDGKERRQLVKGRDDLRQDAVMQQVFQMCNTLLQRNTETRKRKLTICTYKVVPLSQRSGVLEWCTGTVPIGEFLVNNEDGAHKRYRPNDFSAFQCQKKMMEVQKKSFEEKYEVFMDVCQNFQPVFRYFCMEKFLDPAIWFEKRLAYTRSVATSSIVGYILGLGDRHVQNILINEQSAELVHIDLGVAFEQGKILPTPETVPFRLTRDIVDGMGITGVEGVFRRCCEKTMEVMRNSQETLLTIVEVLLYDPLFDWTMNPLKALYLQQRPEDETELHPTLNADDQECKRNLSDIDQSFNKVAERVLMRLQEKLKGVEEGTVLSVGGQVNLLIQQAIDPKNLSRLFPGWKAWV

Structure (SMILES)	IC50 [nM]
COc1cncc(CNc2ccc3c(c2)Cc2cccc(-c4cc(N5CCOCC5)cc(=O)[nH]4)c2O3)c1 [Example 2-3-8, 6-(7-(((5-Methoxypyridin-3-yl)methyl)amino)-9H-xanthen-4-yl)-4-morpholino pyridin-2(1H)-one]	100 to 500
CC(Nc1ccc2c(c1)Sc1cccc(-c3cc(N4CCOCC4)cc(=O)[nH]3)c1S2)c1cccc(CN2CCCC2)n1 (stereo not drawn) [Example 1-12-110, 4-Morpholino-6-(7-((1-(6-(pyrrolidin-1-ylmethyl)pyridin-2-yl)ethyl)amino)thianthren-1-yl)pyridin-2 (1H)-one]	500 to 2000
COc1ccc(CNc2ccc3c(c2)Sc2cccc(-c4cc(N5CCOCC5)cc(=O)[nH]4)c2S3)cn1 [Example 1-12-16, 6-(7-(((6-Methoxypyridin-3-yl)methyl)amino)thianthren-1-yl)-4-morpholino pyridin-2 (1H)-one]	100 to 500
COCCN(C)CCNc1ccc2c(c1)Sc1cccc(-c3cc(N4CCOCC4)cc(=O)[nH]3)c1S2 [Example 1-10-12, 6-(7-((2-((2-Methoxyethyl) (methyl)amino)ethyl)amino)thianthren-1-y1)-4-morpholino pyridin-2(1H)-one]	100 to 500
O=c1cc(N2CCOCC2)cc(-c2cccc3c2Oc2ccc(NCc4cccnc4)cc2C3)[nH]1 [Example 2-3-1, 4-Morpholino-6-(7-((pyridin-3-ylmethyl)amino)-9H-xanthen-4-yl)pyridin-2(1H)-one]	100 to 500
CCN(CC)CC(Nc1ccc2c(c1)Sc1cccc(-c3cc(N4CCOCC4)cc(=O)[nH]3)c1S2)c1ncc(C)cn1 (stereo not drawn) [Example 1-12-106, 6-(7-((2-(Diethylamino)-1-(5-methylpyrimidin-2-yl)ethyl)amino)thianthren-1-yl)-4-morpholino pyridin-2(1H)-one]	100 to 500
O=c1cc(N2CCOCC2)cc(-c2cccc3c2Sc2ccc(N[C@@H]4COC[C@H]4N4CCOCC4)cc2S3)[nH]1 (relative stereo) [Example 1-60, Trans-4-morpholino-6-(7-((4-morpholinotetrahydrofuran-3-yl)amino)thianthren-1-yl)pyridin-2(1H)-one]	< 100
Cc1cccc(CNc2ccc3c(c2)Cc2cccc(-c4cc(N5CCOCC5)cc(=O)[nH]4)c2O3)n1 [Example 2-2-24, 6-(7-(((6-Methylpyridin-2-yl)methyl)amino)-9H-xanthen-4-yl)-4-morpholino pyridin-2(1H)-one]	100 to 500
Cc1ccc(C(CC2CCCCC2)Nc2ccc3c(c2)Sc2cccc(-c4cc(N5CCOCC5)cc(=O)[nH]4)c2S3)nc1 (stereo not drawn) [Example 1-12-129, 6-(7-((2-Cyclohexyl-1-(5-methylpyridin-2-yl)ethyl)amino)thianthren-1-yl)-4-morpholino pyridin-2(1H) one]	500 to 2000
Cc1nccnc1CNc1ccc2c(c1)Sc1cccc(-c3cc(N4CCOCC4)cc(=O)[nH]3)c1S2 [Example 1-12-61, 6-(7-(((3-Methylpyrazin-2-yl)methyl)amino)thianthren-1-yl)-4-morpholino pyridin-2 (1H)-one]	100 to 500
CC(CN1CCC(F)(F)C1)Nc1ccc2c(c1)Sc1cccc(-c3cc(N4CCOCC4)cc(=O)[nH]3)c1S2 (stereo not drawn) [Example 1-43-7, 6-(7-((1-(3,3-Difluoropyrrolidin-1-yl)propan-2-yl)amino)thianthren-1-yl)-4-morpholino pyridin-2(1H)-one]	100 to 500
Cc1cncc(CNc2ccc3c(c2)Sc2cccc(-c4cc(N5CCOCC5)cc(=O)[nH]4)c2S3)n1 [Example 1-12-60, 6-(7-(((6-Methylpyrazin-2-yl)methyl)amino)thianthren-1-yl)-4-morpholino pyridin-2(1H)-one]	100 to 500
CCC(C)C(Nc1ccc2c(c1)Sc1cccc(-c3cc(N4CCOCC4)cc(=O)[nH]3)c1S2)c1ccc(C)cn1 (stereo not drawn) [Example 1-12-122, 6-(7-((2-Methyl-1-(5-methylpyridin-2-yl)butyl)amino)thianthren-1-yl)-4-morpholino pyridin-2(1H)-one]	100 to 500
CC(CNc1ccc2c(c1)Sc1cccc(-c3cc(N4CCOCC4)cc(=O)[nH]3)c1S2)N1CCOCC1 (single isomer, unassigned) [Example 1-9-2-2, 4-morpholino-6-(7-((2-morpholinopropyl)amino)thianthren-1-yl)pyridin-2(1H)-one]	100 to 500
CCOC(=O)CNc1ccc2c(c1)Sc1cccc(-c3cc(N4CCOCC4)cc(=O)[nH]3)c1S2 [Example 1-12-49, Ethyl 2-((6-(4-morpholino-6-oxo-1,6-dihydropyridin-2-yl)thianthren-2-yl)amino) acetate]	< 100
Cc1ccc(C(Nc2ccc3c(c2)Sc2cccc(-c4cc(N5CCOCC5)cc(=O)[nH]4)c2S3)C2CNCCO2)nc1 (single isomer, unassigned) [Example 1-55-2, 6-(7-(((5-methylpyridin-2-yl)(morpholin-2-yl)methyl)amino)thianthren-1-yl)-4-morpholinopyridin-2(1H)-one]	< 100
CC(CN1CCN(c2ccncc2)CC1)Nc1ccc2c(c1)Sc1cccc(-c3cc(N4CCOCC4)cc(=O)[nH]3)c1S2 (stereo not drawn) [Example 1-13-16, 4-Morpholino-6-(7-((1-(4-(pyridin-4-yl)piperazin-1-yl)propan-2-yl)amino)thianthren-1-yl)pyridin-2 (1H)-one]	100 to 500

Results, then the compound that gave them:

IC50 [nM]	Structure (SMILES)
100 to 500	O=c1cc(N2CCOCC2)cc(-c2cccc3c2Oc2ccc(NCc4ccccc4)cc2C3)[nH]1 [Example 2-14-3, 6-(7-(Benzylamino)-9H-xanthen-4-yl)-4-morpholino pyridin-2(1H)-one]
100 to 500	O=c1cc(N2CCOCC2)cc(-c2cccc3c2Oc2ccc(NC4CCN(Cc5cncc(Cl)c5)CC4)cc2C3)[nH]1 [Example 2-28-17, 6-(7-((1-((5-Chloropyridin-3-yl)methyl)piperidin-4-yl)amino)-9H-xanthen-4-yl)-4-morpholino pyridin-2(1H)-one]
100 to 500	COc1ccc(CNc2ccc3c(c2)Sc2cccc(-c4cc(N5CCOCC5)cc(=O)[nH]4)c2O3)cn1 [Example 4-8-11, 6-(8-(((6-Methoxypyridin-3-yl)methyl)amino)phenoxathiin-4-yl)-4-morpholino pyridin-2(1H)-one]
100 to 500	CCCCN1CCCC(Nc2ccc3c(c2)Cc2cccc(-c4cc(N5CCOCC5)cc(=O)[nH]4)c2O3)C1 (stereo not drawn) [Example 2-19-4, 6-(7-((1-Butylpiperidin-3-yl)amino)-9H-xanthen-4-yl)-4-morpholinopyridin-2(1H)-one]
100 to 500	O=c1cc(N2CCOCC2)cc(-c2cc(F)cc3c2Oc2ccc(NCc4cncc(Cl)c4)cc2C3)[nH]1 [Example 2-48-3, 6-(7-(((5-Chloropyridin-3-yl)methyl)amino)-2-fluoro-9H-xanthen-4-yl)-4-morpholinopyridin-2(1H)-one]
100 to 500	O=c1cc(N2CCOCC2)cc(-c2cccc3c2Oc2ccc(NC4CCN(CCc5ccccc5)C4)cc2C3)[nH]1 (stereo not drawn) [Example 2-19-7, 4-Morpholino-6-(7-((1-phenethylpyrrolidin-3-yl)amino)-9H-xanthen-4-yl)pyridin-2(1H)-one]
500 to 2000	CC(Nc1ccc2c(c1)Cc1cccc(-c3cc(N4CCOCC4)cc(=O)[nH]3)c1O2)c1ccncn1 (stereo not drawn) [Example 2-14-50, 4-Morpholino-6-(7-((1-(pyrimidin-4-yl)ethyl)amino)-9H-xanthen-4-yl) pyridin-2(1H)-one]
500 to 2000	COc1cncc(CN2CCC(Nc3ccc4c(c3)Cc3cccc(-c5cc(N6CCOCC6)cc(=O)[nH]5)c3O4)CC2)c1 [Example 2-28-2, 6-(7-((1-((5-Methoxypyridin-3-yl)methyl)piperidin-4-yl)amino)-9H-xanthen-4-yl)-4-morpholino pyridin-2(1H)-one]
500 to 2000	O=c1cc(N2CCOCC2)cc(-c2cccc3c2Oc2ccc(NC4CCN(Cc5ncccn5)CC4)cc2C3)[nH]1 [Example 2-28-3, 4-Morpholino-6-(7-((1-(pyrimidin-2-ylmethyl)piperidin-4-yl)amino)-9H-xanthen-4-yl)pyridin-2 (1H)-one]
100 to 500	COc1cncc(CNc2ccc3c(c2)Cc2ccnc(-c4cc(N5CCOCC5)cc(=O)[nH]4)c2O3)c1 [Example 2-41-1, 6-(7-(((5-Methoxypyridin-3-yl)methyl)amino)-5H-chromeno[2,3-c]pyridin-1-yl)-4-morpholinopyridin-2(1H)-one]
500 to 2000	CC(Nc1ccc2c(c1)Cc1cccc(-c3cc(N4CCOCC4)cc(=O)[nH]3)c1O2)C1CC1 (stereo not drawn) [Example 2-14-70, 6-(7-((1-Cyclopropylethyl)amino)-9H-xanthen-4-yl)-4-morpholino pyridin-2(1H)-one]
100 to 500	CNc1cncc(CNc2ccc3c(c2)Cc2cccc(-c4cc(N5CCOCC5)cc(=O)[nH]4)c2O3)c1 [Example 2-21-4, 6-(7-(((5-(Methylamino)pyridin-3-yl)methyl)amino)-9H-xanthen-4-yl)-4-morpholino pyridin-2(1H)-one]
500 to 2000	COc1ncc(CNc2ccc3c(c2)Cc2ccnc(-c4cc(N5CCOCC5)cc(=O)[nH]4)c2O3)cn1 [Example 2-42-1, 6-(7-(((2-Methoxypyrimidin-5-yl)methyl)amino)-5H-chromeno[2,3-c]pyridin-1-yl)-4-morpholinopyridin-2(1H)-one]
100 to 500	O=c1cc(N2CCOCC2)cc(-c2cccc3c2Oc2ccc(NC4CCN(Cc5ccco5)CC4)cc2C3)[nH]1 [Example 2-28-27, 6-(7-((1-(Furan-2-ylmethyl)piperidin-4-yl)amino)-9H-xanthen-4-yl)-4-morpholino pyridin-2(1H)-one]
100 to 500	N#Cc1cccc(CNc2ccc3c(c2)Cc2cccc(-c4cc(N5CCOCC5)cc(=O)[nH]4)c2O3)c1 [Example 2-3-15, 3-(((5-(4-Morpholino-6-oxo-1,6-dihydropyridin-2-yl)-9H-xanthen-2-yl)amino)methyl) benzonitrile]
100 to 500	O=c1cc(N2CCOCC2)cc(-c2cccc3c2Oc2ccc(NC4CCN(CCc5ccccc5)CC4)cc2C3)[nH]1 [Example 2-28-29, 4-Morpholino-6-(7-((1-phenethylpiperidin-4-yl)amino)-9H-xanthen-4-yl) pyridin-2(1H)-one]

— patent US9586951B2 (FUJIFILM Corporation, priority 2013, dated 2017)
